According to patent publication US20230278972A1, “SUBSTITUTED HALOALKYL SULFONANILIDE HERBICIDES” (FMC Corporation, priority 2020, published 2023):

Key:
[1] = system: wheat (Triticum aestivum); assay: Test A1 preemergence, wheat; type: in vivo
Summary of the method: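 Herbicidal response was scored on plants treated either preemergence, by directed spray onto soil of a loam–sand blend after sowing, or postemergence on potted plants at the one- to two-leaf stage, 2–10 cm high. Test chemicals were carried in a non-phytotoxic solvent mix with surfactant.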

[2] = system: Oat, Wild (wild oat, Avena fatua); assay: Test A1 postemergence, Oat, Wild; type: in vivo; conditions: for Plant response rating, Oat, Wild: Postemergence; for Oat, Wild plant response rating: postemergence
Summary of the method: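 Pre: seeds in loam/sand blend, directed soil spray. Post: potted plants, same soil, 2–10 cm, 1–2 leaf stage. Chemicals in non-phytotoxic solvent + surfactant for both.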

[3] = 31 g ai/ha, 0 to 100 scale (0 no effect, 100 complete control)
[4] = 125 g ai/ha, 0 to 100 scale, 0 no effect, 100 complete control
[5] = 31 g ai/ha, 0 to 100 scale (0 no effect, 100 complete control), 10 days

## Cc1cc(C)c(N(COC(=O)C(C)(C)C)S(=O)(=O)C(F)(F)F)cc1C1=NOC2(C)CCCC12 (centres unmarked) [Compound 341]
[1]; [3]
  Plant response rating, Wheat: 0
[1]; [4]
  Plant response rating, Wheat: 0
[2]; [5]
  Plant response rating, Oat, Wild: 0
[2]; 125 g ai/ha, 0 to 100 scale
  Plant response rating, Oat, Wild: 20

## CCC1ON=C(c2cc(NS(=O)(=O)C(F)(F)F)c(C)cc2C)C1CC (centres unmarked) [Compound 343]
[1]; [3]
  Plant response rating, Wheat: 10
[1]; [4]
  Plant response rating, Wheat: 90
[2]; [5]
  Plant response rating, Oat, Wild: 0
[2]; 125 g ai/ha, 0 to 100 scale
  Plant response rating, Oat, Wild: 50

## CCC1ON=C(c2cc(N(COC(=O)C(C)(C)C)S(=O)(=O)C(F)(F)F)c(C)cc2C)C1CC (centres unmarked) [Compound 344]
[1]; [3]
  Plant response rating, Wheat: 0
[1]; [4]
  Plant response rating, Wheat: 0
[2]; [5]
  Plant response rating, Oat, Wild: 20
[2]; 125 g ai/ha, 0 to 100 scale
  Plant response rating, Oat, Wild: 30

## CCC1ON=C(c2cc(N(C(=O)OCC(C)C)S(=O)(=O)C(F)(F)F)c(C)cc2C)C1CC (centres unmarked) [Compound 345]
[1]; [3]
  Plant response rating, Wheat: 30
[1]; [4]
  Plant response rating, Wheat: 10
[2]; [5]
  Plant response rating, Oat, Wild: 20
[2]; 125 g ai/ha, 0 to 100 scale
  Plant response rating, Oat, Wild: 40

## CCC1ON=C(c2cc(N(COC(=O)C(C)(C)C)S(=O)(=O)C(F)(F)F)c(C)cc2C)C1CC (centres unmarked) [Compound 347]
[1]; [3]
  Plant response rating, Wheat: 0
[1]; [4]
  Plant response rating, Wheat: 20
[2]; [5]
  Plant response rating, Oat, Wild: 10
[2]; 125 g ai/ha, 0 to 100 scale
  Plant response rating, Oat, Wild: 20

## Cc1cc(C)c(C2=NOC3OCCC23)cc1NS(=O)(=O)C(F)(F)F (centres unmarked) [Compound 349]
[1]; [3]
  Plant response rating, Wheat: 20
[1]; [4]
  Plant response rating, Wheat: 70
[2]; [5]
  Plant response rating, Oat, Wild: 0
[2]; 125 g ai/ha, 0 to 100 scale
  Plant response rating, Oat, Wild: 30

## Cc1cc(C)c(N(COC(=O)C(C)(C)C)S(=O)(=O)C(F)(F)F)cc1C(=O)N1CCC(F)(F)CC1 [Compound 350]
[1]; [3]
  Plant response rating, Wheat: 0
[1]; [4]
  Plant response rating, Wheat: 10
[2]; [5]
  Plant response rating, Oat, Wild: 0
[2]; 125 g ai/ha, 0 to 100 scale
  Plant response rating, Oat, Wild: 0

## CCOC(=O)N(c1cc(C(=O)N2CCC(F)(F)CC2)c(C)cc1C)S(=O)(=O)C(F)(F)F [Compound 351]
[1]; [3]
  Plant response rating, Wheat: 10
[1]; [4]
  Plant response rating, Wheat: 50
[2]; [5]
  Plant response rating, Oat, Wild: 0
[2]; 125 g ai/ha, 0 to 100 scale
  Plant response rating, Oat, Wild: 10

## Cc1cc(C)c(N(COC(=O)C(C)(C)C)S(=O)(=O)C(F)(F)F)cc1C1=NOC2OCCC12 (centres unmarked) [Compound 352]
[1]; [3]
  Plant response rating, Wheat: 10
[1]; [4]
  Plant response rating, Wheat: 20
[2]; [5]
  Plant response rating, Oat, Wild: 0
[2]; 125 g ai/ha, 0 to 100 scale
  Plant response rating, Oat, Wild: 20

## CCOC(=O)N(c1cc(C(=O)N2CCC(C)CC2)c(C)cc1C)S(=O)(=O)C(F)(F)F [Compound 354]
[1]; [3]
  Plant response rating, Wheat: 0
[1]; [4]
  Plant response rating, Wheat: 30
[2]; [5]
  Plant response rating, Oat, Wild: 0
[2]; 125 g ai/ha, 0 to 100 scale
  Plant response rating, Oat, Wild: 10

## Cc1c(NS(=O)(=O)C(F)(F)F)cc(C(=O)N2CCC(Cl)CC2)c(C)c1C [Compound 356]
[1]; [3]
  Plant response rating, Wheat: 0
[1]; [4]
  Plant response rating, Wheat: 30
[2]; [5]
  Plant response rating, Oat, Wild: 0
[2]; 125 g ai/ha, 0 to 100 scale
  Plant response rating, Oat, Wild: 10

## Cc1c(NS(=O)(=O)C(F)(F)F)cc(C(=O)N2CCC(F)(F)CC2)c(C)c1C [Compound 357]
[1]; [3]
  Plant response rating, Wheat: 0
[1]; [4]
  Plant response rating, Wheat: 10
[2]; [5]
  Plant response rating, Oat, Wild: 0
[2]; 125 g ai/ha, 0 to 100 scale
  Plant response rating, Oat, Wild: 0

## Cc1c(NS(=O)(=O)C(F)(F)F)cc(C(=O)N2CCC(F)CC2)c(C)c1C [Compound 358]
[1]; [3]
  Plant response rating, Wheat: 0
[1]; [4]
  Plant response rating, Wheat: 30
[2]; [5]
  Plant response rating, Oat, Wild: 0
[2]; 125 g ai/ha, 0 to 100 scale
  Plant response rating, Oat, Wild: 0

## Cc1c(C(=O)N2CCC(F)CC2)cc(N(COC(=O)C(C)(C)C)S(=O)(=O)C(F)(F)F)c(C)c1C [Compound 361]
[1]; [3]
  Plant response rating, Wheat: 0
[1]; [4]
  Plant response rating, Wheat: 0
[2]; [5]
  Plant response rating, Oat, Wild: 0
[2]; 125 g ai/ha, 0 to 100 scale
  Plant response rating, Oat, Wild: 20

## Cc1cc(C)c(N(COC(=O)C(C)(C)C)S(=O)(=O)C(F)(F)F)cc1C(=O)N1CCOCC1 [Compound 362]
[1]; [3]
  Plant response rating, Wheat: 20
[1]; [4]
  Plant response rating, Wheat: 70
[2]; [5]
  Plant response rating, Oat, Wild: 0
[2]; 125 g ai/ha, 0 to 100 scale
  Plant response rating, Oat, Wild: 10

## CCOC(=O)N(c1cc(C(=O)N2CCOCC2)c(C)cc1C)S(=O)(=O)C(F)(F)F [Compound 363]
[1]; [3]
  Plant response rating, Wheat: 40
[1]; [4]
  Plant response rating, Wheat: 90
[2]; [5]
  Plant response rating, Oat, Wild: 20
[2]; 125 g ai/ha, 0 to 100 scale
  Plant response rating, Oat, Wild: 50

## Cc1cc(C)c(N(COC(=O)C(C)(C)C)S(=O)(=O)C(F)(F)F)cc1C(=O)N1CCC(c2ccccc2)CC1 [Compound 364]
[1]; [3]
  Plant response rating, Wheat: 0
[1]; [4]
  Plant response rating, Wheat: 0
[2]; [5]
  Plant response rating, Oat, Wild: 0
[2]; 125 g ai/ha, 0 to 100 scale
  Plant response rating, Oat, Wild: 0

## CCOC(=O)N(c1cc(C(=O)N2CCC(c3ccccc3)CC2)c(C)cc1C)S(=O)(=O)C(F)(F)F [Compound 365]
[1]; [3]
  Plant response rating, Wheat: 0
[1]; [4]
  Plant response rating, Wheat: 0
[2]; [5]
  Plant response rating, Oat, Wild: 0
[2]; 125 g ai/ha, 0 to 100 scale
  Plant response rating, Oat, Wild: 0

## Cc1c(NS(=O)(=O)C(F)(F)F)cc(C(=O)N2CCC(C)CC2)c(C)c1C [Compound 366]
[1]; [3]
  Plant response rating, Wheat: 0
[1]; [4]
  Plant response rating, Wheat: 10
[2]; [3]
  Oat, Wild plant response rating: 0
[2]; 125 g ai/ha, 0 to 100 scale
  Plant response rating, Oat, Wild: 0

## COC1CCN(C(=O)c2cc(NS(=O)(=O)C(F)(F)F)c(C)c(C)c2C)CC1 [Compound 367]
[1]; [3]
  Plant response rating, Wheat: 10
[1]; [4]
  Plant response rating, Wheat: 40
[2]; [3]
  Oat, Wild plant response rating: 0
[2]; 125 g ai/ha, 0 to 100 scale
  Plant response rating, Oat, Wild: 0

## C#CCN(C)C(=O)c1cc(NS(=O)(=O)C(F)(F)F)c(C)c(C)c1C [Compound 368]
[1]; [3]
  Plant response rating, Wheat: 20
[1]; [4]
  Plant response rating, Wheat: 100
[2]; [3]
  Oat, Wild plant response rating: 0
[2]; 125 g ai/ha, 0 to 100 scale
  Plant response rating, Oat, Wild: 10

## Cc1c(C(=O)N2CCC(C)CC2)cc(N(COC(=O)C(C)(C)C)S(=O)(=O)C(F)(F)F)c(C)c1C [Compound 369]
[1]; [3]
  Plant response rating, Wheat: 0
[1]; [4]
  Plant response rating, Wheat: 0
[2]; [3]
  Oat, Wild plant response rating: 0
[2]; 125 g ai/ha, 0 to 100 scale
  Plant response rating, Oat, Wild: 0

## CCC1CC(c2cc(N(COC(=O)C(C)(C)C)S(=O)(=O)C(F)(F)F)c(C)cc2C)=NO1 (centres unmarked) [Compound 376]
[1]; [3]
  Plant response rating, Wheat: 0
[1]; [4]
  Plant response rating, Wheat: 20
[2]; [3]
  Oat, Wild plant response rating: 0
[2]; 125 g ai/ha, 0 to 100 scale
  Plant response rating, Oat, Wild: 0
